# BindingDB's records for patent US20230382911 (Hoffmann-La Roche, 2023)
# Target: S-adenosylmethionine synthase isoform type-2 (Homo sapiens, UniProt P31153)
# Assay: Measurement of Mat2A inhibition is performed in 384 well format absorbance-based assay
# Procedure: Recombinant human Mat2a (12.5 nM) and serial diluted compounds in DMSO (range of concentrations from 10 μM to […]) or controls (DMSO) are incubated for 15 minutes at room temperature (RT) in assay buffer containing 50 mM HEPES pH 7.5, 50 mM KCl, 50 mM MgCl2, 0.01% Tween 20 and 10 mM DTT. The reaction is initiated by the addition of the combined substrates ATP and Methionine, each at a final concentration of 100 μM. Final assay condition are 12.5 nM Mat2A, 100 μM ATP and Methionine Substrates and 2% DMSO. After 120 minutes of incubation at RT, the reaction is stopped by the addition of Biomol Green. The absorbance signal is measured at λ=635 nm with a multiplate reader (BMG Pherastar reader or equivalent) after 30 min of equilibration at RT.
# S-adenosylmethionine synthase isoform type-2, sequence (P31153 whole entry, canonical isoform): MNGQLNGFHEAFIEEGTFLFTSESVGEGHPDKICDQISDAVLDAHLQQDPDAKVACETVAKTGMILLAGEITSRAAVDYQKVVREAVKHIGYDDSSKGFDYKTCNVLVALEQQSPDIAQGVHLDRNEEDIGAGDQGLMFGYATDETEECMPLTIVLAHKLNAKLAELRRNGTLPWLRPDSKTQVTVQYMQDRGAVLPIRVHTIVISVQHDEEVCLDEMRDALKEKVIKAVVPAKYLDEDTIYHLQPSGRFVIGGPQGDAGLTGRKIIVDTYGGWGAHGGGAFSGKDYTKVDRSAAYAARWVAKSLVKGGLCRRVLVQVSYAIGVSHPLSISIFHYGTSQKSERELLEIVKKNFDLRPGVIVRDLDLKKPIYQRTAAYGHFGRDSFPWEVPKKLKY
row,IC50,Structure (SMILES)
1,66 nM,"COc1ccccc1C(=O)n1nc(N)c2cc(F)c(N3CCCC3)nc21 [US20230382911, Example 11]"
2,35 nM,"Cc1ccccc1C(=O)n1nc(N)c2ccc([C@H]3[C@H](C)[C@@H]3C)nc21 [US20230382911, Example 43]"
3,13 nM,"COc1ccccc1C(=O)n1nc(N)c2ccc([C@H]3[C@H](C)[C@@H]3C)nc21 [US20230382911, Example 44]"
